In brackets after ≈: the same amount, converted by molar mass. Activity calls are given as the source filed them. The rule behind the calls is not given here.
Key:
Aspergillus fumigatus [1] = test: Antifungal activity against azole-resistant Aspergillus fumigatus isolate T11 harboring Cyp51A TR/L98H mutant gene assessed as inhibition of fungal growth at 4 mg/l relative to control; assay type: functional, organism-based
Aspergillus nidulans = test: Antifungal activity against Aspergillus nidulans isolate; assay type: functional
Aspergillus fumigatus [2] = test: Antifungal activity against azole-resistant Aspergillus fumigatus isolate T18 harboring Cyp51A TR/L98H mutation assessed as inhibition of fungal growth at 4 mg/l relative to control; assay type: functional, organism-based
Aspergillus fumigatus [3] = test: Antifungal activity against Aspergillus fumigatus isolates harboring Cyp51A TR/L98H mutation by EUCAST method; assay type: functional
Aspergillus lentulus = test: Antifungal activity against Aspergillus lentulus isolate; assay type: functional
Aspergillus fumigatus [4] = test: Antifungal activity against azole-resistant Aspergillus fumigatus isolate T22 harboring Cyp51A TR/L98H mutation assessed as inhibition of fungal growth at 4 mg/l relative to control; assay type: functional, organism-based
Aspergillus fumigatus [5] = test: Antifungal activity against azole-susceptible Aspergillus fumigatus isolate CM-237 assessed as fungal growth at 4 mg/l relative to control; assay type: functional, organism-based
Aspergillus niger = test: Antifungal activity against Aspergillus niger isolate; assay type: functional
Aspergillus fumigatus [6] = test: Antifungal activity against azole-resistant Aspergillus fumigatus isolate R13 harboring Cyp51A TR/L98H mutant gene assessed as inhibition of fungal growth at 4 mg/l relative to control; assay type: functional, organism-based
Aspergillus fumigatus [7] = test: Antifungal activity against azole-susceptible Aspergillus fumigatus isolate CM-237 by EUCAST microdilution method; assay type: functional
Aspergillus fumigatus [8] = test: Antifungal activity against azole-resistant Aspergillus fumigatus isolate T22 harboring Cyp51A TR/L98H mutation assessed as inhibition of fungal growth at 0.5 mg/l relative to control; assay type: functional, organism-based
Aspergillus fumigatus [9] = test: Antifungal activity against azole-resistant Aspergillus fumigatus isolate R13 harboring Cyp51A TR/L98H mutant gene assessed as inhibition of fungal growth at 0.5 mg/l relative to control; assay type: functional, organism-based
Aspergillus fumigatus [10] = test: Antifungal activity against azole-resistant Aspergillus fumigatus isolate T18 harboring Cyp51A TR/L98H mutation assessed as inhibition of fungal growth at 0.5 mg/l relative to control; assay type: functional, organism-based
Aspergillus fumigatus [11] = test: Antifungal activity against azole-susceptible Aspergillus fumigatus isolate CM-237 assessed as fungal growth at 0.5 mg/l relative to control; assay type: functional, organism-based
Aspergillus fumigatus [12] = test: Antifungal activity against azole-resistant Aspergillus fumigatus isolate T11 harboring Cyp51A TR/L98H mutant gene assessed as inhibition of fungal growth at 0.5 mg/l relative to control; assay type: functional, organism-based
Aspergillus fumigatus [13] = test: Antifungal activity against azole-resistant Aspergillus fumigatus isolate T11 harboring Cyp51A TR/L98H mutant gene assessed as inhibition of fungal growth at 1 mg/l relative to control; assay type: functional, organism-based
Aspergillus fumigatus [14] = test: Antifungal activity against azole-susceptible Aspergillus fumigatus isolate CM-237 assessed as fungal growth at 1 mg/l relative to control; assay type: functional, organism-based
Aspergillus fumigatus [15] = test: Antifungal activity against azole-resistant Aspergillus fumigatus isolate T18 harboring Cyp51A TR/L98H mutation assessed as inhibition of fungal growth at 1 mg/l relative to control; assay type: functional, organism-based
Aspergillus fumigatus [16] = test: Antifungal activity against azole-resistant Aspergillus fumigatus isolate R13 harboring Cyp51A TR/L98H mutant gene assessed as inhibition of fungal growth at 1 mg/l relative to control; assay type: functional, organism-based
Aspergillus fumigatus [17] = test: Antifungal activity against azole-resistant Aspergillus fumigatus isolate T22 harboring Cyp51A TR/L98H mutation assessed as inhibition of fungal growth at 1 mg/l relative to control; assay type: functional, organism-based

Structure (SMILES)	inhibition (Aspergillus fumigatus [1])	MIC (Aspergillus nidulans) [µg/mL]	inhibition (Aspergillus fumigatus [2])	MIC (Aspergillus fumigatus [3]) [µg/mL]	MIC (Aspergillus lentulus) [µg/mL]	inhibition (Aspergillus fumigatus [4])	Activity (Aspergillus fumigatus [5])	MIC (Aspergillus niger) [µg/mL]	inhibition (Aspergillus fumigatus [6])	MIC (Aspergillus fumigatus [7]) [µg/mL]	inhibition (Aspergillus fumigatus [8])	inhibition (Aspergillus fumigatus [9])	inhibition (Aspergillus fumigatus [10])	Activity (Aspergillus fumigatus [11])	inhibition (Aspergillus fumigatus [12])	inhibition (Aspergillus fumigatus [13])	inhibition (Aspergillus fumigatus [14])	Activity (Aspergillus fumigatus [15])	Activity (Aspergillus fumigatus [16])	Activity (Aspergillus fumigatus [17])
CCC(C)n1ncn(-c2ccc(N3CCN(c4ccc(OCC5COC(Cn6cncn6)(c6ccc(Cl)cc6Cl)O5)cc4)CC3)cc2)c1=O (stereo not given) [ITRACONAZOLE]	inactive	1 (≈ 1.42 µM)	inactive	> 4	0.5 (≈ 0.709 µM)	inactive	Active	2 (≈ 2.83 µM)	Active	0.25 (≈ 0.354 µM)										
CC[C@@H]([C@H](C)O)n1ncn(-c2ccc(N3CCN(c4ccc(OC[C@@H]5CO[C@@](Cn6cncn6)(c6ccc(F)cc6F)C5)cc4)CC3)cc2)c1=O [POSACONAZOLE]		0.5 (≈ 0.713 µM)		0.25 (≈ 0.357 µM)	0.25 (≈ 0.357 µM)			0.5 (≈ 0.713 µM)		0.06 (≈ 0.0856 µM)	Active	Active	Active	Active	inactive					
C[C@@H](c1ncncc1F)[C@](O)(Cn1cncn1)c1ccc(F)cc1F [VORICONAZOLE]		4 (≈ 11.5 µM)		2 (≈ 5.73 µM)	4 (≈ 11.5 µM)			0.5 (≈ 1.43 µM)		0.5 (≈ 1.43 µM)						Active	Active	Active	inactive	Active

From ChEMBL document CHEMBL1671758, “Environmental study of azole-resistant Aspergillus fumigatus and other aspergilli in Austria, Denmark, and Spain” (2010)
